IC50 data for 10 compounds are collected here from patent publication US20260176289A1, “SMALL MOLECULE INHIBITORS OF KRAS PROTEINS” (Merck Sharp & Dohme LLC, priority 2022, published 2026).

One test deals with SW620 cells. The experiment in a line: Cellular phospho-ERK assay, SW620 cells (homozygous KRAS-G12V). It is filed as cell-based. The conditions noted are these: Homo sapiens, SW-620, KRAS-G12V, 2 hours, read-out: SW620 pERK IC50. In a few lines: (§1)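 Overnight-plated cells on collagen received test compound (up to 30 μM final, threefold steps, ten concentrations) for two hours. After lysis at room temperature, phosphorylated and total ERK were quantified together by Alpha SureFire, and IC50 is based on the phospho-to-total signal ratio.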

The next test concerns the target KRAS-G12D (Homo sapiens, UniProt P01116, G12D). In words: SOS-catalyzed nucleotide exchange assay (Procedure A, TR-FRET), KRAS-G12D. The conditions noted are these: nucleotide exchange, read-out: KRAS G12D GNE IC50. It is filed as biochemical. The essentials:
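Signal ratio (520/495 nm, excitation 340 nm) reports Bodipy-GDP retention on biotinylated RAS after SOS-catalyzed exchange with 3 mM GTP. SOS was 40 nM, except 160 nM for G12V. Room-temperature exchange lasted 60 min (90 min for G12V), following a 60 min compound preincubation.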
(In general: Time-resolved FRET reads energy transfer from a long-lived donor to a nearby acceptor.)

The next test deals with KRAS-G13D (Homo sapiens, UniProt P01116, G13D). In words: SOS-catalyzed nucleotide exchange assay (Procedure A, TR-FRET), KRAS-G13D. The test is classed as biochemical. The conditions noted are these: nucleotide exchange, Procedure A; read-out: KRAS G13D GNE IC50.
For another test, the system named is PANC08.13 cells. The experiment in a line: Cellular phospho-ERK assay, PANC08.13 cells (homozygous KRAS-G12D). It is filed as cell-based. The note with it: Homo sapiens, read-out: PANC-08.13 pERK IC50. Here is the method:
Procedure for Cellular Phospho-ERK Assay in KRAS Wild Type and Mutant (G12D, G12V) Cell Lines
MKN-1 cells (JCRB JCRB0252) containing amplified wild-type KRAS, were cultured in growth medium that contains RPMI 1640-GlutaMAX™-I (ThermoFisher Scientific 61870) containing 10% heat inactivated fetal bovine serum (ThermoFisher Scientific 10091148), 1 mM sodium pyruvate and 10 mM HEPES. PANC08.13 cells (ATCC® CRL-2551™), containing homozygous KRAS-G12D activating mutation, were cultured in growth medium made of RPMI1640-GlutaMAX™-I (ThermoFisher Scientific 61870) containing 15% heat inactivated fetal bovine serum (ThermoFisher Scientific 10091148)). AsPC-1 cells (ATCC® CRL-1682™), containing homozygous KRAS-G12D activating mutation, were cultured in T150 flask in growth medium (RPMI medium 1640-GlutaMAX™-I (ThermoFisher Scientific 61870) containing 10% fetal bovine serum (ThermoFisher Scientific 10091148)). SW620 cells (ATCC® […]), containing homozygous KRAS-G12V activating mutation, were cultured in growth medium that contains RPMI 1640-GlutaMAX™-I (ThermoFisher Scientific 61870) containing 10% heat inactivated fetal bovine serum (ThermoFisher Scientific 10091148).
Cells for the assay were harvested in growth medium after TrypLE (ThermoFisher scientific 12604021) digestion and were seeded in a 384-well collagen coated cell culture plate (Corning 356702) at a density of 10,000-15,000 cells/20 μL/well, and incubated at 37° C., 5% CO2 overnight. The compound (with 10 mM stock concentration) dose-response titrations were prepared [30 μM final ERK detection assay concentration and 1:3 dilutions, 10-point dose response] and appropriate amounts (270 nL) of test compounds were dispensed in a 384-well intermediate plate using an Echo 550 liquid handler. 30 μL/well of RPMI medium 1640-GlutaMAX™—I was added to the intermediate plate and the contents of the intermediate plate (10 μL/well) were then transferred to the 384-well collagen coated cell culture plate, which was incubated at 37° C., 5% CO2 for 2 hours. After removal of medium from the collagen coated cell culture plate, cells were lysed in lysis buffer from Alpha SureFire® Ultra™ Multiplex p-ERK and total ERK assay kit (PerkinElmer MPSU-PTERK) containing Halt™ Protease and Phosphatase inhibitor cocktail (ThermoFisher Scientific 78446) at room temperature with constant shaking at 300 rpm for 30 minutes. The cell lysates were then transferred to an OptiPlate-384 plate (PerkinElmer 6005620), and the phosphorylation of ERK (p-ERK) and total ERK levels were detected by Alpha SureFire® Ultra™ Multiplex p-EEK kit and total ERK assay kit (PerkinElmer MPSU-PTERK) following the manufacturer's protocol. Assay plates were read on a En Vision Multimode Plate Reader (PerkinElmer), and the ratio of p-ERK vs. total ERK in each well was used as the final readout. Dose response curves were analyzed using a 4-parameter logistic model to calculate IC50 values using Spotfire software.

A further test concerns MKN-1 cells. In words: Cellular phospho-ERK assay, MKN-1 cells (amplified wild-type KRAS). It is filed as cell-based. The note with it: Homo sapiens, amplified wild-type KRAS, 2 hours, read-out: MKN1 pERK IC50. The essentials: as §1
The target of test [1] is KRAS-G12C (C51S/C80L/C118S) (Homo sapiens, UniProt P01116, C118S/C51S/C80L/G12C). In words: SOS-catalyzed nucleotide exchange assay (Procedure A, TR-FRET), KRAS-G12C. The test is classed as biochemical. The note with it: nucleotide exchange, Procedure A; read-out: KRAS G12C GNE IC50. In a few lines:
(§2)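 Biotinylated RAS (KRAS-G12C carries C51S/C80L/C118S; others WT background) preloaded with Bodipy-GDP plus Tb-streptavidin, preincubated with compound 60 min at RT, then human SOS and 3 mM GTP added. Final RAS/SOS: G12C 3 nM/40 nM, 60 min; WT 1 nM/40 nM, 60 min; G12V 1.25 nM/160 nM, 90 min; NRAS 1.25 nM/40 nM, 60 min. TR-FRET 520/495 ratio normalized to DMSO and saturating inhibitor; 10-point curves fit four-parameter logistic.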

Another test concerns the target KRAS-G12V (Homo sapiens, UniProt P01116, G12V). The experiment in a line: SOS-catalyzed nucleotide exchange assay (Procedure A, TR-FRET), KRAS-G12V. It is filed as biochemical. The conditions noted are these: nucleotide exchange, read-out: KRAS G12V GNE IC50. The essentials:
as §2

A further test concerns the target KRAS-WT (Homo sapiens, UniProt P01116). In words: SOS-catalyzed nucleotide exchange assay (Procedure A, TR-FRET), KRAS-WT. The test is classed as biochemical. The conditions noted are these: nucleotide exchange, read-out: KRAS WT GNE IC50. In a few lines: as §2
The test system of another test is AsPC-1 cells. In words: Cellular phospho-ERK assay, AsPC-1 cells (homozygous KRAS-G12D). It is filed as cell-based. The note with it: Homo sapiens, ASPC1, 2 h, KRAS-G12D, 2 hours, read-out: AsPC1 pERK IC50. The essentials:
as §1

Like-named read-outs stand apart in the source and are kept apart here.

KRAS-G12C (C51S/C80L/C118S), sequence (P01116 with tags, fused parts or gaps isoform P01116-2 G12C/C51S/C80L/C118S): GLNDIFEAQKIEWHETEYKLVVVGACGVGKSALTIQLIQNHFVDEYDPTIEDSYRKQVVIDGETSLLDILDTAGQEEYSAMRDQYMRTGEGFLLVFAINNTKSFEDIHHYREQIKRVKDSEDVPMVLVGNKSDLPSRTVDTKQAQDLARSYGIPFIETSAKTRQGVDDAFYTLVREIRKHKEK
KRAS-G13D, sequence (P01116 with tags, fused parts or gaps isoform P01116-2 G13D): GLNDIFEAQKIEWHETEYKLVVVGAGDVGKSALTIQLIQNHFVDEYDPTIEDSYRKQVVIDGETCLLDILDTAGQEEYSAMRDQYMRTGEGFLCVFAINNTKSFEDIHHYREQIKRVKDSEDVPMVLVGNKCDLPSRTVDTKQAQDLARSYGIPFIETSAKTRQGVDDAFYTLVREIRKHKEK
KRAS-G12V, sequence (P01116 with tags, fused parts or gaps isoform P01116-2 G12V): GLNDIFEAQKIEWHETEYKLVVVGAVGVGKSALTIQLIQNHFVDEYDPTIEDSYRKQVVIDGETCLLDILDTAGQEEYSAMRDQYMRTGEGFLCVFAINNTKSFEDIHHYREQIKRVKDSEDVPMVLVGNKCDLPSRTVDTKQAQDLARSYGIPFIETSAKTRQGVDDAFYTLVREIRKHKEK
KRAS-WT, sequence (P01116 with tags, fused parts or gaps isoform P01116-2): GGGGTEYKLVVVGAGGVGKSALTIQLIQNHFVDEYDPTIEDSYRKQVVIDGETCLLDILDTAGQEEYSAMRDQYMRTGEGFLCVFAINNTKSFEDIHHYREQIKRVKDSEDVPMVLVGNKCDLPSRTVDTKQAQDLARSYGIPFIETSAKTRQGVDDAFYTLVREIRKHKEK
KRAS-G12D, sequence (P01116 with tags, fused parts or gaps isoform P01116-2 G12D): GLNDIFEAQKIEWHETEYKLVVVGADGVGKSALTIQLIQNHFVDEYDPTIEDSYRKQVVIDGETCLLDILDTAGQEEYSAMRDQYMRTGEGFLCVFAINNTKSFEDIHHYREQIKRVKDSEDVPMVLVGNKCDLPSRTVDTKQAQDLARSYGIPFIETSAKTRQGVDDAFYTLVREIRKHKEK

In the case of `C#Cc1cccc2cccc(-c3nccc4c3sc3nc(OC[C@@]56CCCN5C[C@H](F)C6)nc(N5CCOC[C@@](C)(O)C5)c34)c12` [Ex-127, (S)-4-(8-(8-ethynyl-naphthalen-1-yl)-2-(((2R,7aS)-2-fluoro-tetrahydro-1H-pyr-rolizin-7a(5H)-yl)-methoxy)pyrido[4′, 3′:4,5]thieno[2,3-d]pyrimidin-4-yl)-6-methyl-1,4-oxaze-pan-6-ol], the IC50 with SW620 cells came to 483 nM; at KRAS-G12D, 103 nM; on KRAS-G13D, 287 nM; in the test with PANC08.13 cells (PANC-08-13, KRAS-G12D, 2 hours) it was 351 nM; in the test on MKN-1 cells, 510 nM; in test [1], 91.7 nM. In addition, the half-maximal inhibitory concentration (IC50) on KRAS-G12V stood at 121 nM; on KRAS-WT, 233 nM.
Turning to `Cc1cc2[nH]ncc2c(-c2nccc3c2sc2nc(OC[C@@]45CCCN4C[C@H](F)C5)nc(N4CCC[C@@](C)(O)C4)c23)c1C(F)(F)F` [Ex-128, (3R)-1-(2-(((2R, 7aS)-2-fluorotetra-hydro-1H-pyrrol-izin-7a(5H)-yl)meth-oxy)-8-(6-methyl-5-(trifluoromethyl)-1H-indazol-4-yl)-pyrido[4′,3′:4,5]thieno[2,3-d]pyr-imidin-4-yl)-3-methylpiperidin-3-ol], the IC50 on KRAS-G12D came to 96.9 nM; on KRAS-G13D, 204 nM; with PANC08.13 cells (PANC-08-13, KRAS-G12D, 2 hours), 242 nM; in the test on MKN-1 cells, 214 nM; in [1], 102 nM; in the test on AsPC-1 cells, 667 nM. Moreover, the IC50 on KRAS-G12V worked out at 143 nM; on KRAS-WT it was 246 nM.
As for `Cn1c2nc(OC[C@@]34CCCN3C[C@H](F)C4)nc(N3CCOC[C@@](C)(O)C3)c2c2ccnc(-c3c(C(F)F)c(Cl)cc4[nH]ncc34)c21` (single isomer, unassigned) [Ex-11], the half-maximal inhibitory concentration (IC50) on KRAS-G12D came out at 84.2 nM; at KRAS-G13D, 105 nM; in the test on PANC08.13 cells (PANC-08-13, KRAS-G12D, 2 hours), 240 nM; in test [1], 41.1 nM; in the test on AsPC-1 cells, 1200 nM; at KRAS-G12V, 125 nM. The IC50 on KRAS-WT worked out at 158 nM.
As for `Cc1cc2[nH]ncc2c(-c2nccc3c4c(N5CCC[C@@](C)(O)C5)nc(OC[C@@]56CCCN5C[C@H](F)C6)nc4n(C)c23)c1C(F)(F)F` (single isomer, unassigned) [Ex-5], the IC50 on KRAS-G12D was found to be 61.2 nM; on KRAS-G13D it was 94.3 nM; with PANC08.13 cells (PANC-08-13, KRAS-G12D, 2 hours) it was 188 nM; with MKN-1 cells, 127 nM; in test [1], 96.8 nM; in the test with AsPC-1 cells, 694 nM. In addition, the figures for the 50% inhibitory concentration (IC50) on KRAS-G12V and at KRAS-WT were 80.7 nM and 101 nM, respectively.
In the case of `Cc1cc2[nH]nc(C#N)c2c(-c2nccc3c4c(N5CCOC[C@@](C)(O)C5)nc(OC[C@@]56CCCN5C[C@H](F)C6)nc4n(C)c23)c1C(F)(F)F` (single isomer, unassigned) [Ex-4], the IC50 worked out at 339 nM at KRAS-G12D; 430 nM on KRAS-G13D; 1640 nM in the test on PANC08.13 cells (PANC-08-13, KRAS-G12D, 2 hours); 124 nM in test [1]; 536 nM at KRAS-G12V; 568 nM at KRAS-WT.
Take `Cc1cc2[nH]ncc2c(-c2nccc3c4c(N5CCOCC(O)C5)nc(OC[C@@]56CCCN5C[C@H](F)C6)nc4n(C)c23)c1C(F)(F)F` (single isomer, unassigned) [Ex-23]: the half-maximal inhibitory concentration (IC50) at KRAS-G12D stood at 1430 nM; at KRAS-G13D it was 789 nM; with PANC08.13 cells (PANC-08-13, KRAS-G12D, 2 hours), 3060 nM; in test [1] it was 190 nM; on KRAS-G12V, 657 nM; at KRAS-WT, 1200 nM.
As to `Cc1cc2[nH]ncc2c(-c2nccc3c2oc2nc(OC[C@@]45CCCN4C[C@H](F)C5)nc(N4CCOC[C@@](C)(O)C4)c23)c1C(F)(F)F` [Ex-290, (6S)-4-(2-(((2R,7aS)-2-fluorotetrahydro-1H-pyrrolizin-7a(5H)-yl)methoxy)-8-(6-methyl-5-(trifluoromethyl)-1H-indazol-4-yl)pyrido[4′,3′:4,5]furo[2,3-d]pyrimidin-4-yl)-6-methyl-1,4-oxazepan-6-ol], the 50% inhibitory concentration (IC50) at KRAS-G12D was 611 nM; at KRAS-G13D, 1030 nM; in the test on PANC08.13 cells (PANC-08-13, KRAS-G12D, 2 hours), 2330 nM; in test [1], 175 nM; at KRAS-G12V, 365 nM; at KRAS-WT it was 1400 nM.
On to `Cc1cc2[nH]nc(C)c2c(-c2nccc3c4c(N5CCOC[C@@](C)(O)C5)nc(OC[C@@]56CCCN5C[C@H](F)C6)nc4n(C)c23)c1C(F)F` (single isomer, unassigned) [Ex-8], for which the IC50 at KRAS-G12D was determined as 1500 nM; at KRAS-G13D it was 2090 nM; in the test on PANC08.13 cells (PANC-08-13, KRAS-G12D, 2 hours), 1430 nM; in test [1] it was 1190 nM; on KRAS-G12V it was 1650 nM; on KRAS-WT it was 2250 nM.
Consider `CCc1c(C)cc2[nH]ncc2c1-c1nccc2c1sc1nc(OC[C@@]34CCCN3C[C@H](F)C4)nc(N3CCOC[C@@](C)(O)C3)c12` [Ex-36, (6S)-4-(8-(5-ethyl-6-methyl-1H-indazol-4-yl)-2-(((2R,7aS)-2-fluorotetrahydro-1H-pyrrolizin-7a(5H)-yl)methoxy)pyrido[4′,3′:4,5]thieno[2,3-d]pyrimidin-4-yl)-6-methyl-1,4-oxazepan-6-ol], for which the IC50 at KRAS-G12D is 164 nM; at KRAS-G13D, 150 nM; in the test with PANC08.13 cells (PANC-08-13, KRAS-G12D, 2 hours), 268 nM; in test [1], 125 nM; at KRAS-G12V, 533 nM; on KRAS-WT, 330 nM.
For `Cc1cc2[nH]ncc2c(-c2nccc3c2sc2nc(OC[C@@]45CCCN4C[C@H](F)C5)nc(N4CCOCC4)c23)c1C(F)(F)F` [Ex-179, 4-(2-(((2R,7aS)-2-fluorotetrahydro-1H-pyrrolizin-7a(5H)-yl)methoxy)-8-(6-methyl-5-(trifluoromethyl)-1H-indazol-4-yl)pyrido[4′,3′:4,5]thieno[2,3-d]pyrimidin-4-yl) morpholine], the IC50 on KRAS-G12D was 7600 nM; on KRAS-G13D it was 1320 nM; in the test with PANC08.13 cells (PANC-08-13, 2 hours compound incubation), 3900 nM; in test [1], 124 nM; at KRAS-G12V, 1600 nM; at KRAS-WT, 2760 nM.

As usually defined, the IC50 is the concentration that inhibits the measured activity by half.
